Test [1] relates to LNCaP. Kind of test: Antitumor activity against human LNCAP cells xenografted in mouse assessed as reduction in cells left in matrigels at 1 to 100 mg/kg, ip dosed every other day and measured after 6 weeks by hematoxylin and eosin staining based microscopy. The class given is functional, organism-based.
Test [2] relates to LNCaP. Put plainly: Antitumor activity against human LNCAP cells xenografted in mouse assessed as induction of tumor shrinkage at 1 to 100 mg/kg, ip dosed every other day and measured after 6 weeks by microscopy. The class given is functional, organism-based. (In general: A xenograft is tissue or cells of one species grown in another, often human tumour cells in immunodeficient mice.)

For test [3], the target named is T1, Nucleoside diphosphate phosphatase ENTPD5 (Homo sapiens) (UniProt O75356).
T1 sequence (whole entry): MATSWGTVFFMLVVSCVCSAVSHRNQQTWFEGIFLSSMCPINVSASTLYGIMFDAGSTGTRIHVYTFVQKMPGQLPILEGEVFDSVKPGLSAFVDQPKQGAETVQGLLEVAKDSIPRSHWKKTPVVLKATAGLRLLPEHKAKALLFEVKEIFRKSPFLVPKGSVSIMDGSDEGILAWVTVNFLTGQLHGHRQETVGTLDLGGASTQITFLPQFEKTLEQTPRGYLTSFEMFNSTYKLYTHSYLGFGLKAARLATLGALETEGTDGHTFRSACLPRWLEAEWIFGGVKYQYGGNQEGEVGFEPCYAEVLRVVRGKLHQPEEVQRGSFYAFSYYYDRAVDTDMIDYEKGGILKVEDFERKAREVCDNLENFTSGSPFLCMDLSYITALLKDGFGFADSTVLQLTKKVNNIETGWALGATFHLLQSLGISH
Put plainly: Inhibition of human recombinant ENTPD5 expressed in insect cells assessed as reduction in reduction in UDP hydrolysis by measuring inorganic phosphate release incubated for 1 hr by malachite green based assay.

Test [4] addresses T1, Nucleoside diphosphate phosphatase ENTPD5 (Homo sapiens). Kind of test: Inhibition of human recombinant ENTPD5 expressed in insect cells assessed as reduction in UDP hydrolysis at 1 uM incubated for 1 hr in presence of UMP, GTP and ATP by Escherichia coli UMP kinase pyrH catalyzed UMP phosphorylation coupled luciferase assay.
Test [5] concerns the target T2, Uridylate kinase (Escherichia coli (strain K12)) (UniProt P0A7E9).
T2 sequence (whole entry): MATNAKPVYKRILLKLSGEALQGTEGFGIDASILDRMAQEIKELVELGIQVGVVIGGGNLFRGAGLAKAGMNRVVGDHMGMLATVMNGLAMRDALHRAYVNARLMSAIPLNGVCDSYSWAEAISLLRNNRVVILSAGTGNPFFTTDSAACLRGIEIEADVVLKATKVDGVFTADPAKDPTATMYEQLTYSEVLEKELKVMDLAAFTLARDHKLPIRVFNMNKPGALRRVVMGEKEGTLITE
Kind of test: Inhibition of recombinant Escherichia coli UMP kinase pyrH catalyzed UMP phosphorylation in presence of GTP and ATP incubated for 1 hr by luminescence based assay.

The target in test [6] is T3, Ectonucleoside triphosphate diphosphohydrolase 5 (Mus musculus) (UniProt Q9WUZ9).
T3 sequence (whole entry): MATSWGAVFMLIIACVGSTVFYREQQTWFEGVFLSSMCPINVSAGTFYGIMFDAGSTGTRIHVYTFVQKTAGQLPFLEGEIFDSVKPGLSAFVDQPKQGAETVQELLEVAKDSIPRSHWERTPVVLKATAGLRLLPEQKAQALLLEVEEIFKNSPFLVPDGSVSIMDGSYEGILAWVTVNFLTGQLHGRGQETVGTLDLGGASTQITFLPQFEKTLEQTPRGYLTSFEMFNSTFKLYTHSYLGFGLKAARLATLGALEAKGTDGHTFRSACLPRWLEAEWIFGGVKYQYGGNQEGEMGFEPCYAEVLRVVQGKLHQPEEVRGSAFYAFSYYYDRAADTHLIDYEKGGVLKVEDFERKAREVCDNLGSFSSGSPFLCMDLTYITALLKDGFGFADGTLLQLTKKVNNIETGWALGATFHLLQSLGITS
Put plainly: Inhibition of ENTPD5 in PTEN knockout mouse MEF cells assessed as induction of ER stress by measuring increase in GRP78/BiP expression at 30 uM incubated for 24 hrs by Western blotting analysis. The class given is cell-based. A general note: Immunoblotting shows a protein as a band on a membrane.

For test [7], the target named is T1, Nucleoside diphosphate phosphatase ENTPD5 (Homo sapiens). Put plainly: Inhibition of human recombinant ENTPD5 expressed in insect cells assessed as reduction in UDP hydrolysis up to 10 uM incubated for 1 hr in presence of UMP, GTP and ATP by Escherichia coli UMP kinase pyrH catalyzed UMP phosphorylation coupled luciferase assay.

For 25 molecules, Activity and inhibition results are on record in ChEMBL document CHEMBL4418495, “Entpd5 inhibitors” (2012).

The source made the active and inactive calls.

Consider `N#CC1=C(c2ccco2)CC(c2ccccc2)NC1=S` (stereo not given), for which the result with LNCaP [1] and in the test with LNCaP [2] was Active. The inhibition entry in test [3], in test [4] and in test [6] was “Active” in each case. Besides, the inhibition entry in test [5] is “inactive”. In addition, the inhibition result in test [7] was “Dose-dependent effect”.

For `O=C1NC(=S)N(c2ccccc2F)C(=O)/C1=C/c1cccn1-c1ccc(Br)cc1`, the result in the test on LNCaP [1] and in the test on LNCaP [2] was Active. Also, the inhibition result in test [3], in test [4] and in test [6] was “Active” throughout. In addition, the inhibition result in test [5] was “inactive”. The inhibition result in test [7] is “Dose-dependent effect”.

Regarding `O=C1NC(=O)N(c2ccc(I)cc2)C(=O)/C1=C/c1cnn(-c2ccccc2)c1`, the outcome in the test on LNCaP [1] and in the test on LNCaP [2] was Active. Also, the inhibition entry in test [3], in test [4] and in test [6] was “Active” each time. The inhibition entry in test [5] was “inactive”. In test [7], the inhibition result was “Dose-dependent effect”.

With `Cc1ccc2nc(Nc3nc(O)c(CCC(C)C)c(=O)[nH]3)nc(C)c2c1`, the outcome in the test on LNCaP [1] and with LNCaP [2] was Active. The inhibition result in test [3], in test [4] and in test [6] was “Active” throughout. The inhibition entry in test [5] was “inactive”. The inhibition result in test [7] is “Dose-dependent effect”.

Turning to `Cc1ccc(-c2ccc(C=C3C(=O)NC(=S)NC3=O)o2)c(Br)c1`, the outcome with LNCaP [1] and in the test with LNCaP [2] was Active. For the same molecule, the inhibition entry in test [3], in test [4] and in test [6] was “Active” throughout. Moreover, in test [5], the inhibition result is “inactive”. Moreover, in test [7], the inhibition entry is “Dose-dependent effect”.

Consider `O=S(=O)(c1cccc2cccnc12)N(CCc1csc2nc(-c3ccc4ccccc4c3)cn12)Cc1ccco1`, for which the inhibition result in test [3] and in test [4] was “Active” in each case. For the same molecule, in test [5], the inhibition entry was “inactive”. In addition, the inhibition result in test [7] was “Dose-dependent effect”.

For the molecule `S=C(Nc1ccccc1)Nc1ccc2nc(-c3ccco3)c(-c3ccco3)nc2c1`, the inhibition result in test [3] and in test [4] was “Active” in each case. In addition, the inhibition result in test [5] is “inactive”. Besides, the inhibition entry in test [7] is “Dose-dependent effect”.

For `CCN(CC)c1ccc2cc(C(N)=O)/c(=N/c3cccc4ccccc34)oc2c1`, the inhibition entry in test [3] and in test [4] was “Active” in each case. Also, the inhibition entry in test [5] was “inactive”. In test [7], the inhibition entry was “Dose-dependent effect”.

On to `Cc1ccc(-c2csc3nc(SCc4c(C)noc4C)n(-c4ccccc4)c(=O)c23)o1`, for which the inhibition result in test [3] and in test [4] was “Active” in each case. Besides, the inhibition entry in test [5] was “inactive”. The inhibition result in test [7] is “Dose-dependent effect”.

Regarding `O=C(C(c1ccccc1)c1ccccc1)N(CCc1csc2nc(-c3ccc4ccccc4c3)cn12)Cc1ccco1`, the inhibition result in test [3] and in test [4] was “Active” each time. The inhibition result in test [5] was “inactive”. The inhibition entry in test [7] was “Dose-dependent effect”.

`COc1cccc(NC(=S)Nc2ccc3nc(-c4ccco4)c(-c4ccco4)nc3c2)c1`: the inhibition entry in test [3] and in test [4] was “Active” in each case. In addition, the inhibition entry in test [5] is “inactive”. The inhibition entry in test [7] was “Dose-dependent effect”.

Consider `COCCNC(=O)Cn1cc(/C=C2\C(=O)NC(=O)N(C3CCCCC3)C2=O)c2ccccc21`, for which the inhibition result in test [3] and in test [4] was “Active” in each case. For the same molecule, the inhibition result in test [5] was “inactive”. Further, the inhibition result in test [7] is “Dose-dependent effect”.

As to `O=C1C=CC(=O)c2c1ccc1c2ccc2ccccc21`, the inhibition entry in test [3] and in test [4] was “Active” throughout. For the same molecule, the inhibition entry in test [5] is “inactive”. Moreover, the inhibition result in test [7] is “Dose-dependent effect”.

Take `O=S(=O)(c1ccc2ccccc2c1)N(CCc1csc2nc(-c3ccc4ccccc4c3)cn12)Cc1ccco1`: the inhibition result in test [3] and in test [4] was “Active” in each case. Further, in test [5], the inhibition result is “inactive”. Besides, the inhibition result in test [7] is “Dose-dependent effect”.

`CCc1ccc(NC2=NC(=O)/C(=C/c3cc(Cl)c(OCC(=O)O)c(Cl)c3)S2)cc1`: the inhibition result in test [3] and in test [4] was “Active” each time. Besides, in test [5], the inhibition entry is “inactive”. Besides, in test [7], the inhibition entry is “Dose-dependent effect”.

In the case of `N#CC(c1ccc(Cl)cc1)c1c(Cl)cc(-n2ncc(=O)[nH]c2=O)cc1Cl` (stereo not given), the inhibition result in test [3] and in test [4] was “Active” throughout. Besides, in test [5], the inhibition result is “inactive”. The inhibition result in test [7] was “Dose-dependent effect”.

`Cc1ccc(CNC(=O)c2cc(-c3ccc(Br)s3)nc3ccccc23)o1`: the inhibition result in test [3] and in test [4] was “Active” in each case. For the same molecule, the inhibition result in test [5] is “inactive”. Further, the inhibition result in test [7] is “Dose-dependent effect”.

In the case of `Cc1ccc(NC2=NC(=O)/C(=C/c3ccc(-c4ccc(C(=O)O)cc4)o3)S2)cc1Cl`, the inhibition entry in test [3] and in test [4] was “Active” throughout. Further, the inhibition result in test [5] was “inactive”. Besides, the inhibition entry in test [7] is “Dose-dependent effect”.

Turning to `O=C(CCl)N(CC(=O)N1c2ccccc2-n2cccc2C1c1ccc(Cl)cc1)C1CC1` (stereo not given), the inhibition entry in test [3] and in test [4] was “Active” each time. Moreover, the inhibition entry in test [5] was “inactive”. Further, the inhibition result in test [7] was “Dose-dependent effect”.

Turning to `O=C1C=CC(Br)=C/C1=C/NNC(=O)c1cc2ccccc2cc1O`, the inhibition result in test [3] and in test [4] was “Active” throughout. Besides, the inhibition result in test [5] was “inactive”. In test [7], the inhibition result is “Dose-dependent effect”.

As for `O=C(NC(=S)Nc1cc(Cl)c(O)c(Cl)c1)c1cc2ccccc2o1`, the inhibition result in test [3] and in test [4] was “Active” in each case. Further, the inhibition entry in test [5] is “inactive”. The inhibition entry in test [7] was “Dose-dependent effect”.

Take `O=C1C=CC(=O)c2c1c(-c1ccccc1)nn2-c1ccccc1`: the inhibition result in test [3] and in test [4] was “Active” in each case. Further, in test [5], the inhibition entry was “inactive”. For the same molecule, in test [7], the inhibition result was “Dose-dependent effect”.

`CCN(CC)c1ccc(C(Nc2ccccn2)c2ccc3cccnc3c2O)cc1` (stereo not given): the inhibition entry in test [3] and in test [4] was “Active” in each case. Moreover, in test [5], the inhibition entry is “inactive”. Moreover, the inhibition entry in test [7] was “Dose-dependent effect”.

As for `O=C1Nc2ccc(Br)cc2/C1=C1/SC(=S)N(c2ccc(Cl)cc2)C1=O`, the inhibition entry in test [3] and in test [4] was “Active” throughout. Further, the inhibition entry in test [5] was “inactive”. The inhibition result in test [7] is “Dose-dependent effect”.

In the case of `O=C1C=C/C(=C\NNc2nc(-c3ccccc3)c(CC(=O)O)s2)C(O)=C1`, the inhibition entry in test [3] and in test [4] was “Active” in each case. For the same molecule, the inhibition result in test [5] was “inactive”. The inhibition result in test [7] was “Dose-dependent effect”.
